{"source": "patent US7998940B2", "about": "“Aptamers to von Willebrand factor and their use as thrombotic disease therapeutics” (Archemix Corp., priority 2004, dated 2011)", "molecules": {"B1": {"name": "AMX237.G6: DNA SELEX 2 aptamer clone (nucleic acid)", "DNA": "CTACCTACGATCTGACTAGCGTGCAGTGCCTATTCCAGGCCGTGCGGTGCCTCCGTCACGCTTACTCTCATGTAGTTCC", "modifications": "DNA, backbone and methylation of C not given here", "notes": "DNA SELEX 2 aptamer clone"}}, "key": {"[1]": {"assay": "pharmacokinetics after 3 mg/kg IV in cynomolgus macaques (Oligreen, HPLC)", "assay_type": "in vivo", "description": "ARC1368 (SEQ ID NO 291), 1779 (SEQ ID NO 320) and 1780 (SEQ ID NO 321) (as described in Example 2 above) were injected intravenously into cynomolgus macaques (n=3/group) at a dosage of 3 mg/kg which was expected to yield an instantaneous plasma concentration of 3 uM, approximately 30-fold higher than the putative effective dose. Subsequently, citrated blood samples were collected at regular intervals and processed for plasma.\nSubsequently, plasma aptamer concentrations were determined using the Oligreen assay (Gray et al., Antisense and Nucleic Acid Drug Development 7 (3):133-140 (1997). The data were subsequently analyzed using the program WinNonlin to yield the pharmacokinetic parameters listed in Tables 29 to 31 below.\nFollowing the Oligreen assay analysis, plasma aptamer concentrations were determined for the animals dosed with ARC1779 (SEQ ID NO 320) using a validated HPLC-based assay. The HPLC data were analyzed via noncompartmental and 2-compartment analysis using the program WinNonlin."}, "[2]": {"test_system": "intra-arterial thrombosis of carotid arteries", "assay": "cynomolgus macaque electrolytic thrombosis model", "assay_type": "in vivo, cynomolgus monkeys", "description": "A study was performed to test the efficacy of ARC1779 (SEQ ID NO 320) in inhibiting intra-arterial thrombosis in a well documented non-human primate electrolytic thrombosis model. See, e.g., Rote et al., Stroke, 1994: 25, 1223-1233.\nEach animal was anesthetized prior to surgical preparation, intubated and maintained in anesthesia with isoflurane inhalant anesthetic to effect delivered through a volume-regulated respirator. An intravenous catheter was also placed in a peripheral vein for administration of lactated Ringer's solution during the procedure.\nA catheter was placed in the femoral artery of each animal for continuous monitoring of arterial blood pressure. Similarly a catheter was placed in the femoral vein for blood sample collection. Each carotid artery was instrumented with a Doppler flow probe connected to a flow meter. The flow probes were placed around the artery at a point proximal to the insertion of the intra-arterial electrode and stenosis. The stenosis was placed around each carotid artery so that the […] was reduced by approximately 50% to 60% without altering the mean […]. Blood flow in the carotid arteries was monitored and recorded continuously throughout the observation periods.\nElectrolytic injury to the intimal surface of each carotid artery was accomplished via placement of an intravascular electrode. Each electrode was connected to the positive pole of a constant current device and cathode connected to a distant subcutaneous site. Continuous current was delivered to each vessel for a period of 3 hours or for 30 minutes after complete occlusion, whichever was shorter.\nOnce the electrodes were placed on the right carotid artery (“RCA”) the animal was administered the test article as indicated in Table 32 above. Approximately 15 minutes after test article administration, the electrical current was applied at 100 μA. Blood samples and CBT measurements were collected at the time points specified in Blood Sample Collection Schedule as indicated in FIG. 31. The current was terminated ˜30 minutes after the blood flow signal remained stable at zero flow (which indicates an occlusive thrombus had been formed at the site) or after 180 minutes of electrical stimulation. Approximately 195 minutes after the test article was administered, the left carotid artery (“LCA”) had electrical current administered in a similar fashion as previously described for the RCA. After termination of all surgical procedures and sample collection each animal was euthanized.\nAn additional 10 cynomolgus monkeys (2.5 to 3.5 kg) were divided into treatment groups 5 to 7 and were treated according the regimen indicated in Table 33 below.\nThe animal procedure for each treatment group in Table 33 was conducted as reported for the animals in Example 5B."}, "[3]": {"test_system": "vWF dependent platelet plug formation, human whole blood", "assay": "PFA-100 assay, human whole blood", "assay_type": "cell-based", "details": "for ~IC95 PFA-100 (nM) with citrated human whole blood: minimum concentration that extends closing time to 300 seconds", "text": "Another assay of this Example, using the PFA-100 instrument, is an agonist independent but vWF dependent assay that uses the PFA-100 instrument (Harrison et al., Clin. Lab. Haem., v24, p 225-32 (2002)). The PFA-100 simulates the formation of a hemostatic plug under conditions of high shear force in vivo by recording the time required for a platelets to aggregate and block the flow of citrated whole blood through a microscopic aperture in a membrane coated with collagen and either epinephrine or ADP. This activity is von Willebrand factor dependent as high MW vWF multimers bind to immobilized collagen on the membrane and then bind to and activate platelets because of the shear force induced by drawing the blood through the microscopic aperture.\nFresh whole blood was collected from healthy non-steroidal anti-inflammatory drug (NSAID) free cynomolgus macaques. Aptamers were diluted with physiological saline from Aldon (Cat#9420306) in no-additive vacutainer tubes (Cat#366434, Becton Dickenson). Samples were loaded onto collagen/epinephrine test cartridges (Cat#B4170-20A, Dade Behring) which were used in the PFA-100 machine (Dade Behring). Trigger solution (Cat#B4170-50, Dade Behring) was used in the self-test and to pre-wet the test cartridges. O-ring cleaning pads (Cat#B4170-73, Dade Behring) were used in the self-test and in the O-ring cleaning process.\nA self-test, which included an O-ring cleaning process, was always run on the PFA-100 machine before running any samples to ensure proper function of the machine.\nDuring the entire experiment, the tubes of whole blood were gently inverted every five minutes to prevent settling.\nIn order to assay the titration of aptamer in whole blood, the aptamer was added to no-additive vacutainer tubes and diluted to the desired concentrations (ex: 0 nM, 1 nM to 1000 nM) using physiological saline such that the final volume was […]. When the PFA-100 was ready to run the next set of samples, 1940 μl of whole blood was added to the tube containing a concentration of aptamer. This tube was gently inverted three times to thoroughly mix the aptamer and blood. Samples were always run in duplicate on the PFA-100 machine. 800 μl of this blood mixture was loaded into the collagen/epinephrine test cartridges. The test cartridges were loaded onto the PFA-100 machine. The time of occlusion of the aperture was measured by the PFA-100, with a maximal time of 300 seconds. We estimate the IC95 in this assay to be the minimum concentration of aptamer that extends the closing time to 300 seconds."}, "[4]": {"assay": "not given", "remark": "listed apart in the source"}, "[5]": {"test_system": "ADP induced platelet aggregation", "assay": "ADP Induced Platelet Aggregation (AIPA) in human PRP", "assay_type": "cell-based", "details": "in words, 10 micromolar ADP", "procedure": "Another assay of this Example used ADP to induce platelet aggregation.\nAIPA was performed with human PRP exactly as was done for BIPA described above in Example 3C with the exception that instead of adding botrocetin, 10 micromolar ADP (Chronolog, Haverton, Pa.) was added to induce platelet aggregation."}, "[6]": {"test_system": "rabbit vWF A1 domain (SEQ ID NO 6)", "sequence (as listed by the source)": "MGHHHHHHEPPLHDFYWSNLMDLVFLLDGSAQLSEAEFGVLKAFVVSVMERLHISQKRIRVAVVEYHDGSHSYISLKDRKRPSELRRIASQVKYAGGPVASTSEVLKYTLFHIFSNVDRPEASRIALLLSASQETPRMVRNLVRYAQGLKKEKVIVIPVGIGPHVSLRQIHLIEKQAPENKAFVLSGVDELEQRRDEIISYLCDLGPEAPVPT", "assay": "dot blot KD determination, rabbit vWF A1 domain", "assay_type": "binding", "details": "dot blot, 12 point protein titration, 1xDPBS plus 0.1 mg/mL BSA, room temperature, 30 minutes", "procedure": "A 12 point protein titration was used in the dot blot assay (300 nM, 100 nM, 30 nM, 10 nM, 3 nM, 1 nM, 300 pM, 100 pM, 30 pM, 10 pM, 3 pM, 0 pM) in 1×DPBS plus 0.1 mg/mL BSA at room temperature for 30 minutes."}, "[7]": {"details": "3 mg/kg IV, monkeys, Oligreen assay, noncompartmental, individual animals 2101, 2103, 2104"}, "[8]": {"details": "3 mg/kg IV, monkeys, Oligreen assay, noncompartmental, mean of 3 animals"}, "[9]": {"details": "cynomolgus monkey, in vivo, iv, 3 mg/kg"}}, "note": "“And” between values parts separate entries of the source, which are not always exact repeats. Equal values may be shown once. [invdT] = inverted (3'-3') thymidine; d = 2'-deoxy (DNA); m = 2'-O-methyl"}
{"molecule": "PEG20K-NH2-mGmCmGmUdGdCdAmGmUmGmCmCmUmUmCmGmGmCdCmG-s-TmGdCdGdGTmGmCdCmUdCdCmGmUdCmAmCmGmC-3T [ARC1779]", "values": [{"measurement": "distribution half-life (t1/2α)", "setting": "[1]; 3 mg/kg IV, HPLC-based assay", "value": 1.4, "unit": "h"}, {"measurement": "elimination half-life (t1/2β)", "setting": "[1]; 3 mg/kg IV, HPLC-based assay", "value": 12.9}, {"measurement": "distribution phase α-half-life", "setting": "[1]; 3 mg/kg IV, Oligreen assay", "value": "~2", "unit": "h"}, {"measurement": "AUClast", "setting": "[1]; [7]", "value": "309.245 µg·h/mL and 336.59 µg·h/mL and 235.503 µg·h/mL"}, {"measurement": "Cmax", "setting": "[1]; [7]", "value": "69.065 µg/mL and 65.717 µg/mL and 70.344 µg/mL"}, {"measurement": "MRTlast", "setting": "[1]; [7]", "value": "5.27 h and 4.66 h and 2.69 h"}, {"measurement": "Tmax", "setting": "[1]; [7]", "value": "0.25 hr (2×) and 0.50 hr"}, {"measurement": "AUClast, Mean", "setting": "[1]; [8]", "value": 293.779, "unit": "µg·h/mL"}, {"measurement": "Cmax, Mean", "setting": "[1]; [8]", "value": 68.375, "unit": "µg/mL"}, {"measurement": "MRTlast, Mean", "setting": "[1]; [8]", "value": 4.21, "unit": "h"}, {"measurement": "Tmax, Mean", "setting": "[1]; [8]", "value": 0.33, "unit": "h"}, {"measurement": "concentration-time profile", "setting": "[1]; in words, 3 mg/kg IV, HPLC method", "value": "biphasic"}, {"measurement": "pharmacokinetic profile", "setting": "[1]; in words, 3 mg/kg IV, mean concentration-time profile, OliGreen assay", "value": "mainly monophasic"}, {"measurement": "thrombus formation", "setting": "[2]; in words, sequential 180-minute electrical injuries to the carotid arteries", "value": "inhibited thrombus formation"}, {"measurement": "carotid arteries that developed occlusive thrombi", "setting": "[2]; infusion targeted to constant plasma level of 300 nM", "value": 100, "unit": "%"}, {"measurement": "carotid arteries that developed occlusive thrombi", "setting": "[2]; infusion targeted to constant plasma level of 500 nM", "value": 63, "unit": "%"}, {"measurement": "carotid arteries that developed occlusive thrombi", "setting": "[2]; infusion targeted to constant plasma level of 750 nM", "value": 25, "unit": "%"}, {"measurement": "carotid arteries that developed occlusive thrombi", "setting": "[2]; infusion targeted to constant plasma level of 1000 nM", "value": 0, "unit": "%"}, {"measurement": "~IC95 PFA-100 (nM) with citrated human whole blood", "setting": "[3]", "value": "~100", "unit": "nM"}]}
{"molecule": "dGdGdCdGTdGdCdAdGTdGdCdCTTdCdGdGdCdCdGTdGdCdGdGTdGdCdCTdCdCdGTdCdAdCdGdCdC-3T (DNA GGCGTGCAGTGCCTTCGGCCGTGCGGTGCCTCCGTCACGCC; DNA, [invdT] at 3' end, backbone and methylation of C not given here) [ARC1172, ARC1115 with 3'-inverted dT]", "values": [{"measurement": "T½ Human plasma", "value": 17, "unit": "h"}, {"measurement": "T½ Rat plasma", "setting": "[4]", "value": 3, "unit": "h"}, {"measurement": "~IC95 PFA-100 (nM) with citrated human whole blood", "setting": "[3]", "value": "~100", "unit": "nM"}]}
{"molecule": "mGmCmGmUdGdCdAmGmUmGmCmCmUmUmCmGmGmCdCmG-s-TmGdCdGdGTmGmCdCmUdCdCmGmUdCmAmCmGmC-3T (GCGUGCAGUGCCUUCGGCCGTGCGGTGCCUCCGUCACGC; sugars from the 5' end mmmmdddmmmmmmmmmmmdmdmddddmmdmddmmdmmmm, [invdT] at 3' end, backbone not given here) [ARC1368]", "values": [{"measurement": "T½ Human plasma", "value": 63, "unit": "h"}, {"measurement": "T½ Rat plasma", "setting": "[4]", "value": 21, "unit": "h"}, {"measurement": "AUC0-last, Mean", "setting": "[1]; [9]", "value": 25224, "unit": "ng·h/mL"}, {"measurement": "MRTlast, Mean", "setting": "[1]; [9]", "value": 4.48, "unit": "h"}, {"measurement": "distribution phase", "setting": "[1]; [9]", "value": "rapid distribution phase"}, {"measurement": "pharmacokinetic profile", "setting": "[1]; [9]", "value": "mainly monophasic"}, {"measurement": "ability to block AIPA", "setting": "[5]", "value": "no ability to block AIPA"}, {"measurement": "~IC95 PFA-100 (nM) with citrated human whole blood", "setting": "[3]", "value": "~100", "unit": "nM"}, {"measurement": "potency in PFA-100 assay", "setting": "[3]; in words, human whole blood", "value": "potency comparable to ReoPrO™"}]}
{"molecule": "B1", "values": [{"measurement": "Kd", "setting": "[6]", "value": 47, "unit": "nM"}]}
